Structures are written as SMILES. Values after ≈ are worked out from the molar mass of the structure shown. Active and inactive are the calls of the source. No cut-off for these calls is given here.

One assay deals with Escherichia coli. Briefly: Antibacterial activity against Escherichia coli at >100 ug/mL after 24 hrs by broth dilution method. It counts as functional, organism-based.
In another assay the test system is Aspergillus fumigatus. Briefly: Antifungal activity against Aspergillus fumigatus at >100 ug/mL after 48 hrs. Type of assay: functional, organism-based.
For assay [1], the system named is Trichophyton mentagrophytes. Briefly: Antifungal activity against Trichophyton mentagrophytes by measuring inhibition zone after 48 hrs. Type of assay: functional.
In assay [2] the test system is Streptococcus pyogenes. As to the kind of experiment: Antibacterial activity against Streptococcus pyogenes after 24 hrs by broth dilution method. It counts as functional.
In assay [3] the test system is Aspergillus flavus. As to the kind of experiment: Antifungal activity against Aspergillus flavus by measuring inhibition zone after 48 hrs. Type of assay: functional.
The subject of assay [4] is Klebsiella pneumoniae. As to the kind of experiment: Antibacterial activity against Klebsiella pneumoniae after 24 hrs. Type of assay: functional.
The test system of assay [5] is Klebsiella pneumoniae. As to the kind of experiment: Antibacterial activity against Klebsiella pneumoniae after 24 hrs by broth dilution method. Type of assay: functional.
The subject of assay [6] is Pseudomonas aeruginosa. As to the kind of experiment: Antibacterial activity against Pseudomonas aeruginosa after 24 hrs by broth dilution method. Type of assay: functional.
Assay [7] has as its system Aspergillus flavus. As to the kind of experiment: Antifungal activity against Aspergillus flavus after 48 hrs. It counts as functional.
The test system of assay [8] is Talaromyces marneffei. As to the kind of experiment: Antifungal activity against Penicillium marneffei by measuring inhibition zone after 48 hrs. It counts as functional.
For assay [9], the system named is Trichophyton mentagrophytes. Briefly: Antifungal activity against Trichophyton mentagrophytes after 48 hrs. Type of assay: functional.
In assay [10] the test system is Staphylococcus aureus. Briefly: Antibacterial activity against Staphylococcus aureus after 24 hrs by broth dilution method. Type of assay: functional.
Assay [11] concerns Pseudomonas aeruginosa. Briefly: Antibacterial activity against Pseudomonas aeruginosa after 24 hrs. Type of assay: functional.
The subject of assay [12] is Candida albicans. As to the kind of experiment: Antifungal activity against Candida albicans after 48 hrs. It counts as functional.
The test system of assay [13] is Talaromyces marneffei. Briefly: Antifungal activity against Penicillium marneffei after 48 hrs. Type of assay: functional.
The test system of assay [14] is Streptococcus pyogenes. As to the kind of experiment: Antibacterial activity against Streptococcus pyogenes after 24 hrs. It counts as functional.
Assay [15] relates to Candida albicans. As to the kind of experiment: Antifungal activity against Candida albicans by measuring inhibition zone after 48 hrs. It counts as functional.
In assay [16] the test system is Staphylococcus aureus. As to the kind of experiment: Antibacterial activity against Staphylococcus aureus after 24 hrs. It counts as functional.

For `COc1ccc(-c2csc3nnc(Cc4ccc(Cl)cc4)c(=O)n23)cc1`, the inhibition result in the assay on Escherichia coli and in the assay on Aspergillus fumigatus was “inactive” in each case. Also, the “inhibition zone (IZ)” value in [1] was 14 mm; with Aspergillus flavus [3] it was 19 mm; with Klebsiella pneumoniae [4], 19 mm; in the assay on Talaromyces marneffei [8], 9 mm; in the assay with Pseudomonas aeruginosa [11] it was 14 mm; in the assay with Streptococcus pyogenes [14] it was 10 mm. The “inhibition zone (IZ)” value in the assay on Candida albicans [15] was 11 mm; in the assay with Staphylococcus aureus [16], 12 mm. The minimal inhibitory concentration (MIC) in the assay with Streptococcus pyogenes [2] was found to be 25 µg/mL (≈ 65.1 µM); against Klebsiella pneumoniae [5] it was 6.25 µg/mL (≈ 16.3 µM); against Pseudomonas aeruginosa [6] it was 12.5 µg/mL (≈ 32.6 µM); in the assay on Aspergillus flavus [7] it was 6.25 µg/mL (≈ 16.3 µM); in assay [9], 12.5 µg/mL (≈ 32.6 µM); against Staphylococcus aureus [10], 12.5 µg/mL (≈ 32.6 µM). For the same molecule, the MIC with Candida albicans [12] was 12.5 µg/mL (≈ 32.6 µM); against Talaromyces marneffei [13], 25 µg/mL (≈ 65.1 µM).

The values above are taken from ChEMBL document CHEMBL1275296, “Synthesis and antimicrobial studies of thiazolotriazinones” (2010).
